Results: US9816104B2, “Compositions and methods for deploying a transgenic refuge as a seed blend” (priority 2000, dated 2017)

Tested on: western and northern corn rootworm
Experiment: Field trial, corn rootworm damage by Iowa class and synergy test, Example 3
Assay type: in vivo
Text: A field trial was established and completed in accordance with pertinent protocols and in conformance with USDA notification requirements. The purpose of the trial was to determine the efficacy of transgenic event Cry3Bb.11231 in corn seed in combination with corn rootworm seed treatments using imidacloprid.
For each growing site that was selected, the plot design included the following:
The following seed treatment combinations were used for each growing area:
All seed treatments with pesticides were carried out as described in Example 1. In seed treatment number 1 and 2, Gaucho® was used for wire worm protection, but at levels sufficiently low that it would be expected to have no effect on corn rootworms (i.e., at a treatment level of about 60 gm of active/100 kg seed or 0.16 mg active/kernel), otherwise, seed receiving treatment number 2 had only transgenic event Cry3Bb.11231 and no pesticide treatment that would be expected to be effective against corn rootworm.
For seeds having treatments numbered 3 through 5, the pesticides were applied by the methods described in Example 1. For seeds having treatment numbers 6 and 7, commercially available Force® 3G and Lorsban® 15G were applied to the soil in a 5″ band at the time of sowing. The levels of application are as shown and are within the ranges recommended for standard commercial practice.
Corn seeds to be tested were planted and grown at four different locations across several Midwestern states in the United States corn belt according to the protocol described above.
The determination of damage by corn root worm was made according to the protocol described in Example 2.
Cry3Bb.11231 transgenic event was tested for possible synergy at a level of rootworm damage of 3-6. In the first test, shown in Table 2, the percentage of test plants having damage levels of from 3 to 6, on the Iowa 1-6 Scale, was determined for the control and for seeds treated with the pesticide at two levels, and for seeds having the transgenic event, alone and in combination. The following formula was then used to calculate a “synergy threshold”: (% of control Cry3Bb.11231)*(% of control imidacloprid treatment)/100.
This threshold was compared against the percent of control for the treatment combination (i.e., Cry3Bb.11231 with imidacloprid @ 400 gm/100 kg). If the treatment combination percent of control was below the threshold, then it was concluded that there was synergy.
It was believed that the measurement of rootworm damage at higher damage levels (i.e., levels 3-6) is a useful indicator that correlates with subsequent yield loss due to such damage. The reason for this is that rootworm damage at levels 1 and 2 seldom causes corn plants to fall over and lodge, and such minimal root loss is not believed to reduce the number or weight of kernels per ear. However, root damage at levels of 3 and above increasingly causes lodging and loss of yield. Therefore, it is believed that the summed damage levels of 3-6 (and in some cases, 4-6 and 5 and 6), provides a useful indication of the effect of corn rootworm damage on subsequent corn yield.

SMILES: O=[N+]([O-])NC1=NCCN1Cc1ccc(Cl)nc1 [Imidacloprid, 1-[(6-chloro-3-pyridinyl)methol]-N-nitro-2-imidazolidinimime]
- effectiveness against corn rootworm damage (imidacloprid at 400 gm/100 kg of seed): effective against corn rootworm damage
- CORN ROOTWORM DAMAGE IN EACH IOWA CLASS (IOWA 1-6 SCALE) 1 (number of plants in Iowa class 1, imidacloprid at 400 g/100 kg seed): 3
- CORN ROOTWORM DAMAGE IN EACH IOWA CLASS (IOWA 1-6 SCALE) 2 (number of plants in Iowa class 2, imidacloprid at 400 g/100 kg seed): 15
- CORN ROOTWORM DAMAGE IN EACH IOWA CLASS (IOWA 1-6 SCALE) 3 (number of plants in Iowa class 3, imidacloprid at 400 g/100 kg seed): 36
- CORN ROOTWORM DAMAGE IN EACH IOWA CLASS (IOWA 1-6 SCALE) 4 (number of plants in Iowa class 4, imidacloprid at 400 g/100 kg seed): 21
- CORN ROOTWORM DAMAGE IN EACH IOWA CLASS (IOWA 1-6 SCALE) 5 (number of plants in Iowa class 5, imidacloprid at 400 g/100 kg seed): 5
- CORN ROOTWORM DAMAGE IN EACH IOWA CLASS (IOWA 1-6 SCALE) 6 (number of plants in Iowa class 6, imidacloprid at 400 g/100 kg seed): 0
